Assay results from ChEMBL document CHEMBL1130803, “Anti-HIV pronucleotides: decomposition pathways and correlation with biological activities” (Bioorg Med Chem Lett, 1998).

Key:
[1] = test system: CCRF-CEM; assay: Compound was evaluated for cytotoxicity against thymidine kinase deficient CEM cell line infected with HIV-1; assay type: functional; settings: Homo sapiens
[2] = test system: CCRF-CEM; assay: Compound was evaluated for anti-HIV activity against thymidine kinase deficient CEM cell line infected with HIV-1; assay type: functional, cell-based; settings: Homo sapiens
[3] = Half-life at initial concentration of 5*10e-5 M in CEM cell extract; assay type: ADME, CCRF-CEM; settings: human

Row | SMILES | EC50 [2] | half-life [3] | CC50 [1]
1 | COC(=O)[C@H](C)NP(=O)(OC[C@H]1O[C@@H](n2cc(C)c(=O)[nH]c2=O)C[C@@H]1N=[N+]=[N-])Oc1ccccc1 (some centres undefined) | 4.1 µM | 2.5 h | 97 µM
2 | Cc1cn([C@H]2C[C@H](N=[N+]=[N-])[C@@H](CO)O2)c(=O)[nH]c1=O [ZIDOVUDINE] | > 100 µM |  | > 100 µM

Continued, in another order:

Row | EC50 [2] | half-life [3] | SMILES | CC50 [1]
3 | > 100 µM | > 8 h | COC(=O)CCNP(=O)(OCC1OC(n2cc(C)c(=O)[nH]c2=O)CC1N=[N+]=[N-])Oc1ccccc1 (centres undefined) | > 100 µM
4 | > 10 µM | 1.5 h | CC(=O)OCCNP(=O)(OCC1OC(n2cc(C)c(=O)[nH]c2=O)CC1N=[N+]=[N-])Oc1ccccc1 (centres undefined) | > 10 µM
5 | 63 µM | 21 h | COC(=O)CNP(=O)(OCC1OC(n2cc(C)c(=O)[nH]c2=O)CC1N=[N+]=[N-])Oc1ccccc1 (centres undefined) | > 100 µM
